Results on 4 compounds are retold here after patent publication US20010039255A1, “Use of alpha1A adrenoceptor agonists with alpha1B and alpha1D antagonism for the treatment of stress urinary incontinence” (priority 2000, published 2001).

Series [1] has as its target T1, α1d (rat receptor expressed in mouse fibroblasts) (Rattus norvegicus, UniProt P23944).
T1 construct: expressed in transfected cells; host or cells: mouse fibroblasts
T1 sequence (P23944 1-561): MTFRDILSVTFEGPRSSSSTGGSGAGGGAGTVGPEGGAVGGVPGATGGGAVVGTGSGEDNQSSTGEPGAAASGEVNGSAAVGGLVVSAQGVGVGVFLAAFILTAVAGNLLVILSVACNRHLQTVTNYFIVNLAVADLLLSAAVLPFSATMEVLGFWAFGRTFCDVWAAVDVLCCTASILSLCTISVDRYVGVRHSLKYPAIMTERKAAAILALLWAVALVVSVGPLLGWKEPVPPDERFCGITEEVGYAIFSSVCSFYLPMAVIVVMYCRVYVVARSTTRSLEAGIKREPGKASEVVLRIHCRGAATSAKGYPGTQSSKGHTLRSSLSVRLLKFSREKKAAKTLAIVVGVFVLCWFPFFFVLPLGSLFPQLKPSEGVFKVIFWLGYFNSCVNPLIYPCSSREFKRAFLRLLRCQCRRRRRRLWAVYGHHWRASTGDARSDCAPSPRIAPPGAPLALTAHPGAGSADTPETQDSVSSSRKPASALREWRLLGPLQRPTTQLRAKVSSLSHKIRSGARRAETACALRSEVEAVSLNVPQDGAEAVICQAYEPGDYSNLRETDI
Kind of series: Radioligand binding with [3H]-prazosin, α1d (rat receptor expressed in mouse fibroblasts).

Series [2] concerns the target T2, α1B adrenoceptor (rat spleen) (Rattus norvegicus, UniProt P15823).
T2 sequence (P15823 1-515): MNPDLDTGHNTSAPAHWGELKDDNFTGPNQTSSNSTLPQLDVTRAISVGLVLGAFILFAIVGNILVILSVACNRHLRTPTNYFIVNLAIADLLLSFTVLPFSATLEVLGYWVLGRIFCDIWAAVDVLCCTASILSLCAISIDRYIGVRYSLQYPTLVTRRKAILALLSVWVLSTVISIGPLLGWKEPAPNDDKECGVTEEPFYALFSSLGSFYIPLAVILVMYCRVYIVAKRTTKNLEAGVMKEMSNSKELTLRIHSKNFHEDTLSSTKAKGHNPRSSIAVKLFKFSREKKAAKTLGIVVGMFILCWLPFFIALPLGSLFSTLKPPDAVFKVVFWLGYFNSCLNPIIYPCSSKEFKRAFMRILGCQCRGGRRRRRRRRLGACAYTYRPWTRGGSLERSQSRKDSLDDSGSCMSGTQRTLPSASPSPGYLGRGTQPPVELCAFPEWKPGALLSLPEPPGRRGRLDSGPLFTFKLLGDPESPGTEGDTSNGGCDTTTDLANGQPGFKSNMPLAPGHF
The note with it: for α1B r: Schild plot regression correlation; for α1B slope: Schild plot slope; for type of antagonism at α1B: based on slope and regression (r) of Schild plot. From the text: A cumulative concentration protocol was employed.

The test system of the next series is Female Beagle dogs. As to conditions: for IUP ED5mmHg: dose producing 5 mmHg increase in intraurethral pressure; for effect on intraurethral pressure and mean arterial pressure: increasing i.v. doses, dogs, FIGS. 1-4.
In series [3] the target is T3, α1A (rat submaxillary gland) (Rattus norvegicus, UniProt P43140).
T3 construct: from tissue; host or cells: rat submaxillary gland
T3 sequence (P43140 1-466): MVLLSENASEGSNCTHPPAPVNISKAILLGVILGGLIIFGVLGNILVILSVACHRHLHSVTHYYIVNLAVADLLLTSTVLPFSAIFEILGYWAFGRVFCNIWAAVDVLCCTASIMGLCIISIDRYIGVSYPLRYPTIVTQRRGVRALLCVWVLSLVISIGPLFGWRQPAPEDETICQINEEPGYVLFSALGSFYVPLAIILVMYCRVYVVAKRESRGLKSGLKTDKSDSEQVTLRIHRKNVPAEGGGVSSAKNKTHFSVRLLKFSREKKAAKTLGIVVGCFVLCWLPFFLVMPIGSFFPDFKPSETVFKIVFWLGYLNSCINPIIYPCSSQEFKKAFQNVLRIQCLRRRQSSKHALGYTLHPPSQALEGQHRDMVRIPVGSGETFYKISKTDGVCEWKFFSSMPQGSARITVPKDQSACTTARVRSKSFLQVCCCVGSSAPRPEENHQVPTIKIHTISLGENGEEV
The series can be described thus: Radioligand binding with [3H]-prazosin, α1A (rat submaxillary gland).

Series [4] addresses T4, α1D adrenoceptor (rat aorta) (Rattus norvegicus, UniProt P23944).
T4 sequence (P23944 1-561): T1 sequence (P23944 1-561)
The note with it: for α1D r: Schild plot regression correlation; for α1D slope: Schild plot slope; for type of antagonism at α1D: based on slope and regression (r) of Schild plot; for α1D efficacy: percent of phenylephrine (100%) contraction.

Series [5] has as its target T5, α1b (hamster receptor expressed in mouse fibroblasts) (Mesocricetus auratus, UniProt P18841).
T5 construct: expressed in transfected cells; host or cells: mouse fibroblasts
T5 sequence (P18841 1-515): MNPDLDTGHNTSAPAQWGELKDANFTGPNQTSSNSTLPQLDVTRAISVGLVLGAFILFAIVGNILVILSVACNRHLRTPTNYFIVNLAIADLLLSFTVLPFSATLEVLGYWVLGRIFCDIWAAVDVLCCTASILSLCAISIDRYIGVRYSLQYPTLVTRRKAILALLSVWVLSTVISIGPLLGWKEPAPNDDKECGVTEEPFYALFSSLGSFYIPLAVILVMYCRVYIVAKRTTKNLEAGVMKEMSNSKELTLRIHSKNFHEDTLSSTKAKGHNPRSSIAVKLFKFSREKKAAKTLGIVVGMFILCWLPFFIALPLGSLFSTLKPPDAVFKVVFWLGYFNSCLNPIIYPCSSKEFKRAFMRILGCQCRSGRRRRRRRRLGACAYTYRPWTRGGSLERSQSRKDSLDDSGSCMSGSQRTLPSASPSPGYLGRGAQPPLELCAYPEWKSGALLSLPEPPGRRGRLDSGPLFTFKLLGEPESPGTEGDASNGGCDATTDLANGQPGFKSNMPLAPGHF
The series can be described thus: Radioligand binding with [3H]-prazosin, α1b (hamster receptor expressed in mouse fibroblasts). From the text: Radioligand Binding Ki (nM)
Exp. Ther. (1995), 274, 97-103.

For series [6], the target named is T6, α1A adrenoceptor (rabbit urethra) (Oryctolagus cuniculus, UniProt O02824).
T6 sequence (O02824 1-466): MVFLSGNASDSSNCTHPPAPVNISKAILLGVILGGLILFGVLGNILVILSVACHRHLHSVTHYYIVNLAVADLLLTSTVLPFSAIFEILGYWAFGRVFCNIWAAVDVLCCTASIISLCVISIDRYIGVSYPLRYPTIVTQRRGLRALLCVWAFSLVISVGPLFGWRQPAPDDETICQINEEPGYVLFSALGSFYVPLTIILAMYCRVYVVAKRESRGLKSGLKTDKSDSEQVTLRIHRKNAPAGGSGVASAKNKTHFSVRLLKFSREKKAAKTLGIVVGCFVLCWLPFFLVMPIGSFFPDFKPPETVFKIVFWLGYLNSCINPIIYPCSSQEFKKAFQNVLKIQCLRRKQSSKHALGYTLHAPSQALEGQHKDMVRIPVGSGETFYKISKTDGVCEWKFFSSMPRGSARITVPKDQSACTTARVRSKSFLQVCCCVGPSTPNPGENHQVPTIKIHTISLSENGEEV
Kind of series: Rabbit urethra α1A subtype tissue bath. The format is cell-based. From the text:
Rabbit Urethra α1A Subtype
A cumulative concentration protocol was employed. […] Br. J. Pharmacol. 14, 48-58.

The target in series [7] is T4, α1D adrenoceptor (rat aorta). Kind of series: cell-based.
Setting [8] is: i.v., anesthetized dogs, mean ± S.E.M.
[9] abbreviates: i.v., anesthetized dogs, dose producing 20 mmHg increase in mean arterial pressure, mean ± S.E.M.

Read-outs that look alike come from different tables or passages of the source.

Source text for Female Beagle dogs: Female Beagle dogs (Marshall Farms, North Rose, N.Y.) greater that 2 years of age and weighing between 12 and 15 kg were used in these studies. At least 2 weeks prior to any agonist dosing, dogs were instrumented for the chronic measurement of arterial blood pressure by implanting a telemetry transducer/transmitter (TA11PA-C40, Data Sciences International, St. Paul, Minn.) into a carotid artery.
On the test day, dogs fasted since the previous afternoon were pre-anesthetized with thiopental sodium 15 mg/kg i.v. (Pentothal™, Abbott) and intubated. Anesthesia was maintained by allowing the dog to spontaneously breathe a mixture of isoflurane (2.5 to 3 volume %) and oxygen delivered by a Narkomed Standard anesthesia system (North American Drager, Telford, Pa.). An Abbocath-T™ i.v. catheter (18-G, Abbott Laboratories, Abbott Park, Ill.) was inserted into the cephalic vein for the administration of agonists. A telemetry receiver (RA1310, DataSciences) was placed under the head of each dog and was interfaced to a computerized data acquisition system (Modular Instruments Inc.(MI2), Malvern, Pa.) which allowed for the continuous calibrated recording of arterial blood pressure which was electronically filtered to determine its mean value (MAP).
Intraurethral pressure was monitored using a balloon catheter technique previously described (Brune et al., Drug Development Research 34:267-275,1995). Briefly, a 7 Fr catheter balloon catheter (41224-01, Abbott) was inserted into the urethral orifice and advanced approximately 15 cm until the tip was well inside the bladder. The balloon was then inflated with 1 ml of room air and the catheter slowly withdrawn until resistance (corresponding to the bladder neck) was evident. The balloon was then deflated and the catheter withdrawn an additional 2 cm. The balloon was then reinflated and its catheter port connected to a Gould Statham P23Dd pressure transducer interfaced to a computerized data acquisition system (Modular Instruments, Inc., Malvern, Pa.) for the measurement of intraurethral pressure (IUP). The MAP and IUP pressor responses to increasing iv doses of test agonists were obtained simultaneously. The pressor effects of each dose were allowed to return to baseline before the next dose was given.
The dose required to elicit significant and clinically meaningful changes in IUP (5 mm Hg) relative to the dose required to elicit a physiologically significant increase in blood pressure (20 mm Hg) is calculated.
IUP and MAP pressor effects of each agonist dose were expressed as the maximum net change in each pressure over pre-dose baseline levels. Subsequently, the effective doses required to produce a 5 mmHg increase in IUP (IUP ED5mmHg) and a 20 mmHg increase in MAP (MAP ED20mmHg) were estimated from the dose response data from each dog. Relative urethral versus vascular selectivity of each agonist in each dog was estimated using a ratio of these respective potency indices (MAP ED20mmHg/IUP ED5mmHg).

One may read the Ki as a dissociation constant, usually derived from enzyme kinetics or from competition with a known ligand. Take `CCS(=O)(=O)Nc1cccc(Cc2c[nH]cn2)c1C` [Compound A-286569]: the affinity in series [1] corresponds to a Ki of 840 ± 78 nM. In series [2] (rat spleen), the α1B r turned out to be 0.6 and the α1B slope was 1.3. The “type of antagonism at α1B” value in series [2] is “non-competitive antagonist”. For the same compound, the “IUP ED5mmHg” value with Female Beagle dogs (setting [8]) was 41.9 ± 6.2 nmol/kg. In addition, the “MAP ED20mmHg” value with Female Beagle dogs (setting [9]) was 201.6 ± 67 nmol/kg. In addition, the “effect on intraurethral pressure and mean arterial pressure” value (“effect” below) with Female Beagle dogs is given as “dose-dependent increases”. Further, the Ki in series [3] is 150 ± 32 nM. In series [4] (rat aorta), this compound yielded a α1D r of 0.5 and a α1D slope of 1.1. For the same compound, the “type of antagonism at α1D” value in series [4] was “non-competitive antagonist”. In addition, in series [5], the Ki is greater than 10000 nM.
Consider `CCS(=O)(=O)Nc1cccc(Cc2c[nH]cn2)c1` [Compound A-286666], for which, in series [1], the Ki amounted to 287 ± 41 nM. Further, in series [2] (rat spleen), the α1B r stood at 0.9 and the α1B slope was determined as 0.81. For the same compound, in series [2], the “type of antagonism at α1B” value is “competitive antagonist”. Also, the affinity in series [3] corresponds to a Ki of 137 ± 15 nM. In series [4] (rat aorta), this compound registered a α1D r of 0.9 and a α1D slope of 0.93. Further, in series [4], the “type of antagonism at α1D” value was “competitive antagonist”. For the same compound, the affinity in series [5] corresponds to a Ki of 913 ± 135 nM.
As for `CC(N)C(O)c1ccccc1` (centres unmarked) [PPA, phenylpropanolamine, reference compound], in series [1] (rat receptor expressed in mouse fibroblasts, [3H]-prazosin), the “α1d binding (in words)” value is given as “weak adrenergic ligand”. This compound yielded a α1B efficacy in series [2] (percent of phenylephrine (100%) contraction, rat spleen) of 34%. In series [2] (rat spleen), the “α1B agonist activity (in words; merged pD2/efficacy cell)” value is “weak agonist”. Also, the “α1A agonist activity (in words)” value in series [6] is “weak agonist”. For the same compound, in series [6] (percent of phenylephrine (100%) contraction), the α1A efficacy is reported as 68%. Moreover, the “Selectivity ratio MAP ED20/IUP ED5” value with Female Beagle dogs (calculated for each dog and then averaged) is on record as 0.4. Also, the “IUP ED5mmHg” value with Female Beagle dogs (setting [8]) is 1092 ± 384 nmol/kg. In the series with Female Beagle dogs (setting [9]), the “MAP ED20mmHg” value was found to be 331 ± 80 nmol/kg. For the same compound, in the series with Female Beagle dogs, the “effect” value was “dose-dependent increases”. Moreover, the “Radioligand Binding Ki α1A (Rat)” value in series [3] (rat submaxillary gland, [3H]-prazosin) was “weak adrenergic ligand”. In series [4] (rat aorta), the α1D efficacy stood at 91% and the “α1D agonist activity (in words; merged pD2/efficacy cell)” value is “weak agonist”. Also, the “α1b binding (in words)” value in series [5] (hamster receptor expressed in mouse fibroblasts, [3H]-prazosin) is “weak adrenergic ligand”.
Broadly, the EC50 is the midpoint of the concentration-response curve. Lower therefore signals an effect from little substance. Turning to `CS(=O)(=O)Nc1c(O)ccc2c1CCCC2C1=NCCN1` (centres unmarked) [Compound A-61603, reference compound], the Ki in series [1] was found to be 1560 ± 169 nM; in series [5] (hamster receptor expressed in mouse fibroblasts, [3H]-prazosin, read-out: Radioligand Binding Ki α1b (Hamster)) it was 1210 nM. In the series on Female Beagle dogs (female, Beagle, dog, in vivo, iv), the “MAP ED20mmHg” value was 0.27 ± 0.05 nmol/kg. Moreover, in the series with Female Beagle dogs (setting [8]), the “IUP ED5mmHg” value was 0.16 ± 0.02 nmol/kg. Moreover, in the series with Female Beagle dogs, the “effect” value is “dose-dependent increases”. Moreover, the EC50 in series [7] is 2510 nM. The same compound showed a α1D efficacy in series [4] (rat aorta) of 100%.
